[PMO-N] = phosphorodiamidate morpholino subunit (N: the base)
What was measured:
Normal MPB CD34+CD45+ = assay: Surface antigen expression after PMO treatment, normal cells; assay type: cell-based, human
Diabetic PB CD34+CD45+ = assay: Surface antigen expression after PMO treatment, diabetic cells; assay type: cell-based, human
human CD34+ EPCs = assay: Retinal ischemia-reperfusion injury model, incorporation of injected human CD34+ EPCs; assay type: in vivo, mice; conditions: for repair of acellular capillaries: diabetic CD34+ cells
Experimental: Mice (n=20) were kept under inhalation anaesthesia (isoflurane vapor) during induction of ischemia. The anterior chamber of the eye was cannulated with a 30-gauge needle attached to an infusion line of sterile saline, and the eye was subjected to 2 h of hydrostatic pressure (80-90 mmHg, measured by TonoPen; Medtronic Solan, Jacksonville, Fla.). […] The contralateral eye served as a control.
Seven days after the insult, at which time retinal capillary damage was appreciable,^14,15 the animals were injected intravitreally with isolated human CD34^+ EPCs pre-treated with either […] or control-PMO. After 48 h the animals were euthanized, the eyes were enucleated and the neural retinas were isolated by dissection. The retinas were permeabilized as described above, and reacted with rhodamine-conjugated R. communis agglutinin I. To assess the location of the injected human CD34^+ EPCs, retinas were further incubated with mouse monoclonal anti-human nuclear antigen (Chemicon) followed by secondary staining with FITC-conjugated goat-anti-mouse IgG antibodies (Chemicon). Confocal images of six random fields were taken and fluorescence intensity in each 100 μm^2 was analysed using ImageJ software. Appropriate non-immune antibodies, as well as incubation without primary antibody, were used to determine background and non-specific antibody binding.

CXCR4 = assay: Real-time PCR of CXCR4 mRNA in CD34+ EPCs; assay type: cell-based, human; conditions: normalized to β-actin
Experimental: (§1) Total mRNA from CD34 cells was isolated by using the Total RNA Mini Kit (Bio-Rad, Hercules, Calif.). The mRNA was transcribed by using an iScript cDNA Synthesis Kit (BioRad), and real-time PCR was performed using primers for CXCR4, CXCR7, or beta actin as per manufacturer's instructions (Ambion, Austin, Tex.). Real-time PCR was performed on 7500 Fast Real-Time PCR system for 40 cycles and all reactions were performed in triplicate.

[1] = system: human peripheral blood-derived CD34+ cells; assay: NO production by DAF-FM fluorescence imaging; assay type: cell-based; conditions: for NO generation in response to SDF-1 after PMO treatment / NO-release by SDF-1 in anti-TGFβ-PMO treated cells with inhibitor: diabetic CD34+ cells; for NO generation in response to SDF-1 after PMO treatment / NO-release in response to SDF-1 after PMO pre-treatment: PMO 40 μg/mL; for NO-release in response to SDF-1 after PMO pre-treatment: n=3
Experimental: Human CD34^+ EPCs were incubated overnight with either control-PMO or anti-TGF-β-PMO at a concentration of 40 μg/mL. NO production was quantified in human peripheral blood-derived CD34^+ cells using NO-sensitive cell-permeant fluorescent dye DAF-FM. CD34^+ EPCs were loaded with 20 μM DAF-FM diacetate (Invitrogen) in 500 μl, of DPBS (MediaTech. Inc.) with glucose (1 mg/mL) and L-arginine (1 mM). […] Pharmacological inhibitors were added 30 min before the addition of DAF-FM. […] Cells were washed (4×) and 75 μL of cell suspension was placed in the coverslip-bottomed dish for fluorescence imaging. Fluorescent images were obtained using a computer-controlled monochromator excitation light source (TILL Polychrome II, TILL-Photonics, Martinsried, Germany) and a cooled CCD camera with exposure control (SensiCam, Till-photonics). During excitation at 488 nm with 50 ms of exposure time, emission at 510 nm was collected by the camera at 2×2 binning and images were acquired by Till-Vision software (Till Photonics, Martinsried, Germany). Images were corrected for background and maximum fluorescence intensity in individual cells was quantified in terms of arbitrary fluorescence units using Till-Vision software. Changes in fluorescence with different treatments were expressed as percent change with respect to cells that were used as time/vehicle control i.e. cells received no treatments but loaded with DAF-FM. Up to 75 numbers of cells were imaged per sample/donor and ‘n’ denotes number of donors used.

CXCR7 = assay: Real-time PCR of CXCR7 mRNA in CD34+ EPCs; assay type: cell-based, human; conditions: non-diabetic CD34+ cells, P<0.001
Experimental: as §1

murine HSCs = assay: CNV laser injury model, homing of adoptively transferred GFP+ murine HSCs; assay type: in vivo, mice; conditions: overnight pre-treatment of HSCs, vs control-PMO (p<0.05) or medium alone
CD34+ EPCs = assay: Modified Boyden chamber migration to SDF-1 after PMO treatment; assay type: cell-based, human; conditions: SDF-1 100 nM
human CD34+ cells = assay: Survival in the absence of growth factors and later proliferation of CD34+ cells; assay type: cell-based
Experimental: Two discrete cord blood stem cell populations, lin^−CD34^+CD38^+ (FIG. 5A) or lin^−CD34^+CD38^− (FIG. 5B), in addition to lin^−CD34^+ cells from peripheral blood and bone marrow (FIG. 6A) were either treated with PMO containing medium or not. After 5 days, all cells received growth factors (Tpo, SCF, IL-3, IL-6) to detect live, growth factor responsive cells and their proliferative potential after 14 days was determined. By day 14, cells exposed to 20-300 μg/mL of anti-TGF-β-PMO typically formed macro colonies (>100,000 cells) after the addition of growth factors (FIG. 5).
Human cord blood and bone marrow CD34^+ EPCs were purchased from AllCells (Emeryville, Calif.) as positively selected lin^−, magnetic bead-purified frozen cell populations that were >95% CD34^+ cells by FACS analysis. Cells were thawed in a 37° C. water bath, diluted in excess IMDM 10% FBS, pelleted by centrifugation (300×g for 10 min), washed by centrifugation one additional time and, finally, counted using a hemocytometer. Viability, as determined by trypan blue dye exclusion, was routinely >95% after thaw and washes.
Further purification was carried out prior to survival and proliferation studies. Cells were adjusted to 5×10^5/mL in phosphate-buffered saline (PBS) containing 2% (v/v) fetal bovine serum (FBS) and incubated with single murine antibody controls and murine anti-CD34-PE, anti-CD45-PE-Cy5 and anti-CD38-APC. Just prior to cell sorting, propidium iodide (2 μg/mL) was added to detect non-viable cells. CD34^+, CD45^mid cells (HSCs are CD45^mid expressing and can be clearly separated from contaminating lymphocytes, which are CD45^high expressing) and CD38^+/− cells were directly sorted into 96-well round bottom plates (10±2 cells/well) containing IMDM, 10% horse serum, 10% FBS, 100 units/mL of penicillin, 10 μg/mL streptomycin, 20 mM 1-glutamine and 1 μM hydrocortisone±PMOs. At day 5, a hematopoietic growth factor cocktail (Hgf-cocktail) consisting of 20 ng/mL thrombopoietin, 50 ng/mL stem cell factor, 50 ng/mL interleukin-3 and 20 ng/mL interleukin-6, all purchased from PeproTech, N.J., was added to the wells. Cells were followed by daily direct light microscopy (×200) to assess cell proliferation. Cells that proliferated in response to growth factors were scored as cells that survived after the 5-day period in the absence of growth factors. […]
CD34^+ EPCs were isolated from cord blood, human bone marrow and peripheral blood as described above and sorted 10 cells per well in a 96 well plate in either the presence or absence of growth factors and in presence or absence of anti-TGFβ-PMO. […] This incubation period was previously determined by measuring the uptake of fluorescein isothyocyanate (FITC)-labelled PMOs in HSCs.

[2] = non-diabetic (normal) CD34+ EPCs

Compound	CD14 % of cells (Normal MPB CD34+CD45+)	CD38 % of cells (Normal MPB CD34+CD45+)	CD105 % of cells (Normal MPB CD34+CD45+)	CXCR4 % of cells (Normal MPB CD34+CD45+)	VEGFR-2 % of cells (Normal MPB CD34+CD45+)	CD14 % of cells (Diabetic PB CD34+CD45+)	CD38 % of cells (Diabetic PB CD34+CD45+)	CD105 % of cells (Diabetic PB CD34+CD45+)	CXCR4 % of cells (Diabetic PB CD34+CD45+)	VEGFR-2 % of cells (Diabetic PB CD34+CD45+)	repair of acellular capillaries (human CD34+ EPCs)	CXCR4 mRNA expression (CXCR4; diabetic CD34+ cells)	CXCR4 mRNA expression (CXCR4; [2])	NO generation in response to SDF-1 after PMO treatment ([1]; n=4) [%]	NO-release in response to SDF-1 after PMO pre-treatment ([1]; non-diabetic CD34+ cells) [%]	further results
control-PMO: control morpholino oligomer, 5′ CGTTCTGATAGCTGTACCTC 3′ (SEQ ID NO: 1), AVI BioPharma sequence ID#0-1-0-555 (antisense CGTTCTGATAGCTGTACCTC; all phosphorodiamidate morpholino (PMO)) [reference compound]	69.3 % of cells	79.9 % of cells	71.0 % of cells	88.5 % of cells	62.9 % of cells	59.3 % of cells	92.2 % of cells	58.8 % of cells	74.1 % of cells	59.3 % of cells	essentially no repair	not changed	increased	9.2	60±5	–
pertussis toxin	–	–	–	–	–	–	–	–	–	–	–	–	–	–	–	NO-release by SDF-1 in anti-TGFβ-PMO treated cells with inhibitor ([1]; inhibitor 100 ng/mL): 16±3%; NO release by SDF-1 after inhibitor pre-treatment ([1]; non-diabetic CD34+ cells, SDF-1 100 nM, inhibitor 100 ng/ml): 20±9%
O=c1cc(N2CCOCC2)oc2c(-c3ccccc3)cccc12 [LY294002]	–	–	–	–	–	–	–	–	–	–	–	–	–	–	–	NO release by SDF-1 after inhibitor pre-treatment ([1]; non-diabetic CD34+ cells, SDF-1 100 nM, inhibitor 20 μM): 12±3%
SDF-1: the principal stem/progenitor cell homing factor, used as chemotaxis effector and NO release stimulus	–	–	–	–	–	–	–	–	–	–	–	–	–	–	–	increase in NO generation vs time-control ([1]; non-diabetic CD34+ cells, SDF-1 100 nM, n=4): 45±4%
c1cc(CN2CCCNCCNCCCNCC2)ccc1CN1CCCNCCNCCCNCC1 [AMD3100]	–	–	–	–	–	–	–	–	–	–	–	–	–	–	–	NO-release by SDF-1 in anti-TGFβ-PMO treated cells with inhibitor ([1]; inhibitor 10 μM): 28±2%; NO release by SDF-1 after inhibitor pre-treatment ([1]; non-diabetic CD34+ cells, SDF-1 100 nM, inhibitor 10 μM): 3±2%
anti-TGF-β-PMO: phosphorodiamidate morpholino antisense oligomer, 5′ GAG GGC GGC ATG III GAG GC 3′ (SEQ ID NO: 2), AVI BioPharma sequence ID#0-1-01067 (antisense GAGGGCGGCATGNNNGAGGC; all [PMO-N], the base at N not given here; further chemistry not fully specified)	73.3 % of cells	82.3 % of cells	62.9 % of cells	85.3 % of cells	56.5 % of cells	62.4 % of cells	94.2 % of cells	51.7 % of cells	72.7 % of cells	62.4 % of cells	robust reparative response	significantly increased	down-regulation	69±7	54±4	CXCR7 mRNA expression (CXCR7): increased; numbers of GFP+ HSCs recruited to the laser injury site (murine HSCs): substantial increase; migration to SDF-1 vs control-PMO (CD34+ EPCs; diabetic CD34+ EPCs, P<0.05): enhanced migration; migration to SDF-1 vs control-PMO (CD34+ EPCs; non-diabetic CD34+ EPCs, P<0.01): enhanced migration; cell survival (human CD34+ cells; 40 μg/mL, compared with other concentrations): greatest cell survival; proliferation vs control-PMO (human CD34+ cells; BM-derived cells): increased proliferation; macro colony size by day 14 after addition of growth factors (human CD34+ cells; cord blood cells, 20-300 μg/mL, growth factors added after 5 days): > 100,000 cells; proliferation vs control-PMO (human CD34+ cells; peripheral blood CD34+ cells from diabetics and age- and sex-matched controls): enhanced proliferation; increase in incorporation of cells to injured retinal capillaries vs control-PMO (human CD34+ EPCs; FITC immunoreactivity per 100 μm^2 area, P<0.001): 2.5 fold; homing to areas of ischemic injury (human CD34+ EPCs; pre-treated EPCs injected intravitreally, vs control-PMO): profound homing
